{"source": "patent US10273218B2", "about": "“BCL-3 inhibitors” (University College Cardiff Consultants Limited, priority 2014, dated 2019)", "key": {"[1]": {"tested_on": "human breast cancer MDA-MB-231 xenograft", "experiment": "in vivo metastasis mouse Model 1 (seeding and early colonization of circulating tumour cells)", "parameters": "species or system mice", "conditions": "3.5 mg/kg intraperitoneally daily; MDA-MB-231", "method": "(§1) In all experiments, each compound was administered by intraperitoneally at 3.5 mg/kg.\n(§2) One model (Model 1) studied the effect of the compound's ability to inhibit the seeding and early colonization of circulating tumour cells at distal sites, most commonly in the lungs and liver. Human tumour cell lines were injected into the bloodstream of recipient mice, followed by single daily intraperitoneal injections of the compound (3.5 mg/kg in 1% DMSO) for 10 consecutive days. Tumour burden was monitored longitudinally for up to 8 weeks in vivo by live luminescence imaging, and subsequently histology performed on affected organs at the end of the experiment.\nas §2, with “Model 1 tested” for “One model (Model 1) studied”, “Bcl3i compounds” for “the compound's ability”, “Bcl3 inhibitor” for “the compound”\nThe X axis represents the number of days after xenograft and the Y axis is the relative luminescence of the thoracic region by Xenon IVIS scanning of mice following injection of d-luciferin for 10 minutes.\nMDA-MB-231 human breast cancer cells were used in each of the three xenograft models of metastatic breast cancer."}, "[2]": {"tested_on": "human breast cancer (MDA-MB-231)", "experiment": "mouse Model 4 (tumour growth at transplantation site), MDA-MB-231", "format": "in vivo, mice", "conditions": "3.5 mg/kg intraperitoneal injection daily; MDA-MB-231 subcutaneous; caliper tumour volume; listed as compound 12", "method": "as §1\n(§3) Another model (Model 4) studied the effect of the compound's ability to inhibit the growth of tumour cells at the transplantation site. Human tumour cell lines were injected subcutaneously into recipient mice, followed 2 days later by single daily intraperitoneal injections of a compound (3.5 mg/kg in 1% DMSO) for the entire course of the experiment. Tumour burden was monitored longitudinally for up to 12 weeks in vivo by palpation and caliper measurements of tumour volume, and subsequently histology performed on tumours at the end of the experiment.\n(§4) Model 4 tested the effect of compounds of the application to inhibit the growth of tumour cells at the transplantation site. Human tumour cell lines were injected subcutaneously into recipient mice, followed 2 days later by single daily intraperitoneal injections of Bcl3 inhibitor (3.5 mg/kg in 1% DMSO) for the entire course of the experiment. Tumour burden was monitored longitudinally for up to 12 weeks in vivo by palpation and caliper measurements of tumour volume, and subsequently histology performed on tumours at the end of the experiment.\nFIGS. 6 and 7 show the comparative effect of compound 12 (3.5 mg/kg intraperitoneal injection) on Model 4 in human breast cancer (MDA-MB-231) and human colorectal cell lines (SW480), respectively. […]"}, "[3]": {"tested_on": "human colorectal cell lines (SW480)", "experiment": "mouse Model 4 (tumour growth at transplantation site), SW480", "format": "in vivo, mice", "conditions": "3.5 mg/kg intraperitoneal injection daily; SW480 subcutaneous; caliper tumour volume", "method": "as §1, §3, §4\nFIGS. 6 and 7 show the comparative effect of compound 12 (3.5 mg/kg intraperitoneal injection) on Model 4 in human breast cancer (MDA-MB-231) and human colorectal cell lines (SW480), respectively."}, "[4]": {"tested_on": "NF-κB activity in MDA-MB-231 cells", "experiment": "NF-kB luciferase assay, EGF-induced NF-kB activity", "format": "cell-based, human", "conditions": "1 micromolar, 20 hours, then 100 ng/ml EGF for 3 hours", "method": "MDA-MB-231 is a highly metastatic, human basal epithelial cell line isolated from the pleural effusion of an adenocarcinoma. The cells are ‘triple negative’ as they lack estrogen, progesterone and ERBB2 receptor and they strongly over-express EGFR. The expression of receptors in this line has been confirmed by the host laboratory.\nFor NF-κB luciferase assays, cells are seeded into clear bottom black 96-well plates (Corning Inc., Lowell, US) in antibiotic free culture media in appropriate density. After about 20-24 hrs, cells are transfected with 10 ng of 3×κB luciferase plasmid and 10 ng of pcDNA3.1-Lacl plasmid per well. […]\nAfter 48 hrs post-transfection with luciferase reporter plasmid, the media is aspirated and cells are lyzed using 50 μl/well of Glo-lysis buffer (Promega, Southampton, UK). […] Subsequently, 30 μl/well of Bright-Glo luciferase substrate (Promega, Southampton, UK) is added to the original plate and is assayed immediately for luminescence activity. The luminescence produced from either reaction is read using a Fluorostar Optima plate reader (BMG tabtech, Bucks, UK). […]\nAfter 48 hrs post-transfection with luciferase reporter plasmid, the media was aspirated and cells were lyzed using 50 μl/well of Glo-lysis buffer (Promega, Southampton, UK). […] The luminescence produced from either reaction was read using a Flurostar Optima plate reader (BMG tabtech, Bucks, UK). […]"}}, "data": [{"smiles": "COc1ccc(C(=O)Nc2ccccc2C(=O)NCCN2CCOCC2)c(F)c1", "note": "[Compound 12, 2-fluoro-4-methoxy-N-(2-((2-morpholinoethyl)carbamoyl)phenyl) benzamide]", "values": [{"measurement": "effect on tumour cell seeding at distal sites (FIG. 8)", "setting": "[1]", "result": "most profound effect"}, {"measurement": "tumour growth at the transplantation (xenograft) site", "setting": "[2]", "result": "significant reductions in average tumour growth"}, {"measurement": "average tumour growth at the transplantation site", "setting": "[3]", "result": "significant reductions in average tumour growth"}, {"measurement": "greater suppression of NF-kB activity as compared to reference compound A", "setting": "[4]", "result": 25, "unit": "%"}, {"measurement": "suppression of EGF induced NF-kB activity", "setting": "[4]; MDA-MB-231 NF-kB promoter luciferase reporter", "result": 100, "unit": "%"}]}]}
